Measured values from patent US20260008776A1 (HANGZHOU POLYMED BIOPHARMACEUTICALS, INC., priority 2023, published 2026).
Read-outs that look alike come from different tables or passages of the source.

Key:
[1] = assay type: physicochemical
Experimental: The glass dishes or glass vials were then placed in different environments of the constant temperature and humidity chamber, with conditions including: illumination: 4500±500 Lux (open); high temperature: 60° C.

[2] = Solubility test of salts in pH buffers, water and physiological solutions; assay type: physicochemical
Experimental: The solubility of dominant salts in different pH buffers, water, and physiological solutions was determined. The specific steps for solubility determination are as follows: […] The vials were sealed, transferred to a magnetic stirrer, and maintained at 25° C. with a stirring rate of 500 rpm for 24 hours. The dissolution status in sample vials was recorded during the test. After 24 hours, approximately 1 mL of the suspension was filtered, and the filtrate was collected for solubility test via HPLC analysis. The pH value of the filtrate sample was measured using a pH meter.

DVS test of salt forms = assay type: physicochemical; details: for Hygroscopicity (DVS), in words: 0% to 90% humidity, two cycles
Excerpt: 1. The instrument sample pan was first tared and balanced.
3. The program was run: starting from 0% humidity as the initial point, slowly increasing to 90%, then returning to 0% to complete the cycle 1; rising again to 90% and decreasing back to 0% to conclude, completing the cycle 2 (as shown in FIGS. 35-36).

[3] = High Relative Humidity (RH = 90 ± 5%, Open, 25° C.), 5 Days
[4] = High Relative Humidity (RH = 90 ± 5%, Open, 25° C.), 11 Days
[5] = High Temperature (60° C., Sealed), 5 Days
[6] = High Temperature (60° C., Sealed), 11 Days
[7] = Strong Illumination (Open), 5 Days
[8] = Strong Illumination (Open), 11 Days

Structure (SMILES): CC(C)(O)CCn1cc2cc(NC(=O)c3coc(-c4ccnc(C(F)(F)F)c4)n3)c(C(C)(C)O)cc2n1.Cl [crystal form A of hydrochloride salt]
- Solid-state stability evaluation [1]: good physical and chemical stability
- Color Change [1, 3]: No Change
- Purity [1, 3]: 99.65%
- Salt Type [1, 3]: No Change
- Color Change [1, 4]: No Change
- Purity [1, 4]: 99.79%
- Salt Type [1, 4]: No Change
- Color Change [1, 5]: No Change
- Purity [1, 5]: 99.64%
- Salt Type [1, 5]: No Change
- Color Change [1, 6]: No Change
- Purity [1, 6]: 99.48%
- Salt Type [1, 6]: No Change
- Purity ([1]; Initial State): 98.53%
- Color Change ([1]; Initial State (colour)): White
- Color Change [1, 7]: No Change
- Purity [1, 7]: 99.68%
- Salt Type [1, 7]: No Change
- Color Change [1, 8]: No Change
- Purity [1, 8]: 99.56%
- Salt Type [1, 8]: No Change
- Solubility at 25° C. ([2]; Buffer pH = 1.0, 24 hours): 172.73 µg/mL
- Solubility at 25° C. ([2]; Buffer pH = 6.8, 24 hours): <LOD
- Solubility at 25° C. ([2]; FaSSIF (pH = 6.5), 24 hours): 2.09 µg/mL
- Solubility at 25° C. ([2]; FeSSIF (pH = 5.0), 24 hours): 7.86 µg/mL
- Solubility at 25° C. ([2]; SGF (pH = 1.2), 24 hours): 2.20 µg/mL
- Solubility at 25° C. ([2]; Water, 24 hours): <LOD
- Change of the sample before and after the DVS test (DVS test of salt forms): no changes are observed
- Hygroscopicity (DVS), in words (DVS test of salt forms): low hygroscopicity
- Water Sorption at 90% Relative Humidity (DVS test of salt forms): 0.42% Water Sorption at 90% Relative Humidity
- Desorption (DVS test of salt forms; cycle 1, 0% humidity): −0.06%
- Sorption (DVS test of salt forms; cycle 1, 0% humidity): 0.00%
- Desorption (DVS test of salt forms; cycle 1, 10% humidity): −0.02%
- Sorption (DVS test of salt forms; cycle 1, 10% humidity): −0.02%
- Desorption (DVS test of salt forms; cycle 1, 20% humidity): 0.01%
- Sorption (DVS test of salt forms; cycle 1, 20% humidity): 0.00%
- Desorption (DVS test of salt forms; cycle 1, 30% humidity): 0.04%
- Sorption (DVS test of salt forms; cycle 1, 30% humidity): 0.03%
- Desorption (DVS test of salt forms; cycle 1, 40% humidity): 0.07%
- Sorption (DVS test of salt forms; cycle 1, 40% humidity): 0.06%
- Desorption (DVS test of salt forms; cycle 1, 50% humidity): 0.11%
- Sorption (DVS test of salt forms; cycle 1, 50% humidity): 0.09%
- Desorption (DVS test of salt forms; cycle 1, 60% humidity): 0.16%
- Sorption (DVS test of salt forms; cycle 1, 60% humidity): 0.13%
- Desorption (DVS test of salt forms; cycle 1, 70% humidity): 0.21%
- Sorption (DVS test of salt forms; cycle 1, 70% humidity): 0.17%
- Desorption (DVS test of salt forms; cycle 1, 80% humidity): 0.30%
- Sorption (DVS test of salt forms; cycle 1, 80% humidity): 0.28%
- Desorption (DVS test of salt forms; cycle 1, 90% humidity): 0.42%
- Sorption (DVS test of salt forms; cycle 1, 90% humidity): 0.42%
- Desorption (DVS test of salt forms; cycle 2, 0% humidity): −0.05%
- Sorption (DVS test of salt forms; cycle 2, 0% humidity): −0.06%
- Desorption (DVS test of salt forms; cycle 2, 10% humidity): −0.02%
- Sorption (DVS test of salt forms; cycle 2, 10% humidity): −0.03%
- Desorption (DVS test of salt forms; cycle 2, 20% humidity): 0.01%
- Sorption (DVS test of salt forms; cycle 2, 20% humidity): 0.01%
- Desorption (DVS test of salt forms; cycle 2, 30% humidity): 0.05%
- Sorption (DVS test of salt forms; cycle 2, 30% humidity): 0.03%
- Desorption (DVS test of salt forms; cycle 2, 40% humidity): 0.08%
- Sorption (DVS test of salt forms; cycle 2, 40% humidity): 0.07%
- Desorption (DVS test of salt forms; cycle 2, 50% humidity): 0.12%
- Sorption (DVS test of salt forms; cycle 2, 50% humidity): 0.10%
- Desorption (DVS test of salt forms; cycle 2, 60% humidity): 0.17%
- Sorption (DVS test of salt forms; cycle 2, 60% humidity): 0.14%
- Desorption (DVS test of salt forms; cycle 2, 70% humidity): 0.22%
- Sorption (DVS test of salt forms; cycle 2, 70% humidity): 0.19%
- Desorption (DVS test of salt forms; cycle 2, 80% humidity): 0.32%
- Sorption (DVS test of salt forms; cycle 2, 80% humidity): 0.30%
- Desorption (DVS test of salt forms; cycle 2, 90% humidity): 0.45%
- Sorption (DVS test of salt forms; cycle 2, 90% humidity): 0.45%

Structure (SMILES): CC(C)(O)CCn1cc2cc(NC(=O)c3coc(-c4ccnc(C(F)(F)F)c4)n3)c(C(C)(C)O)cc2n1.O=P(O)(O)O [crystal form A of phosphate salt]
- Color Change [1, 3]: No Change
- Purity [1, 3]: 99.66%
- Salt Type [1, 3]: No Change
- Color Change [1, 4]: No Change
- Purity [1, 4]: 99.33%
- Salt Type [1, 4]: No Change
- Color Change [1, 5]: Turn Yellow
- Purity [1, 5]: 99.49%
- Salt Type [1, 5]: No Change
- Color Change [1, 6]: Turn Yellow
- Purity [1, 6]: 99.49%
- Salt Type [1, 6]: No Change
- Purity ([1]; Initial State): 99.18%
- Color Change ([1]; Initial State (colour)): White
- Color Change [1, 7]: No Change
- Purity [1, 7]: 99.67%
- Salt Type [1, 7]: No Change
- Color Change [1, 8]: No Change
- Purity [1, 8]: 99.01%
- Salt Type [1, 8]: No Change
- Solubility at 25° C. ([2]; Buffer pH = 6.8, 24 hours): <LOD
- Solubility at 25° C. ([2]; FaSSIF (pH = 6.5), 24 hours): <LOD
- Solubility at 25° C. ([2]; FeSSIF (pH = 5.0), 24 hours): <LOD
- Solubility at 25° C. ([2]; SGF (pH = 1.2), 24 hours): <LOD
- Solubility at 25° C. ([2]; Water, 24 hours): <LOD
- Change of the sample before and after the DVS test (DVS test of salt forms): no changes are observed
- Hygroscopicity (DVS), in words (DVS test of salt forms): low hygroscopicity
- Water Sorption at 90% Relative Humidity (DVS test of salt forms): 0.80% Water Sorption at 90% Relative Humidity
- Desorption (DVS test of salt forms; cycle 1, 0% humidity): −0.04%
- Sorption (DVS test of salt forms; cycle 1, 0% humidity): 0.00%
- Desorption (DVS test of salt forms; cycle 1, 10% humidity): −0.01%
- Sorption (DVS test of salt forms; cycle 1, 10% humidity): 0.02%
- Desorption (DVS test of salt forms; cycle 1, 20% humidity): 0.01%
- Sorption (DVS test of salt forms; cycle 1, 20% humidity): 0.04%
- Desorption (DVS test of salt forms; cycle 1, 30% humidity): 0.04%
- Sorption (DVS test of salt forms; cycle 1, 30% humidity): 0.06%
- Desorption (DVS test of salt forms; cycle 1, 40% humidity): 0.09%
- Sorption (DVS test of salt forms; cycle 1, 40% humidity): 0.10%
- Desorption (DVS test of salt forms; cycle 1, 50% humidity): 0.15%
- Sorption (DVS test of salt forms; cycle 1, 50% humidity): 0.14%
- Desorption (DVS test of salt forms; cycle 1, 60% humidity): 0.21%
- Sorption (DVS test of salt forms; cycle 1, 60% humidity): 0.20%
- Desorption (DVS test of salt forms; cycle 1, 70% humidity): 0.31%
- Sorption (DVS test of salt forms; cycle 1, 70% humidity): 0.29%
- Desorption (DVS test of salt forms; cycle 1, 80% humidity): 0.46%
- Sorption (DVS test of salt forms; cycle 1, 80% humidity): 0.44%
- Desorption (DVS test of salt forms; cycle 1, 90% humidity): 0.80%
- Sorption (DVS test of salt forms; cycle 1, 90% humidity): 0.80%
- Desorption (DVS test of salt forms; cycle 2, 0% humidity): −0.05%
- Sorption (DVS test of salt forms; cycle 2, 0% humidity): −0.04%
- Desorption (DVS test of salt forms; cycle 2, 10% humidity): −0.03%
- Sorption (DVS test of salt forms; cycle 2, 10% humidity): −0.02%
- Desorption (DVS test of salt forms; cycle 2, 20% humidity): 0.00%
- Sorption (DVS test of salt forms; cycle 2, 20% humidity): 0.01%
- Desorption (DVS test of salt forms; cycle 2, 30% humidity): 0.03%
- Sorption (DVS test of salt forms; cycle 2, 30% humidity): 0.04%
- Desorption (DVS test of salt forms; cycle 2, 40% humidity): 0.07%
- Sorption (DVS test of salt forms; cycle 2, 40% humidity): 0.07%
- Desorption (DVS test of salt forms; cycle 2, 50% humidity): 0.13%
- Sorption (DVS test of salt forms; cycle 2, 50% humidity): 0.12%
- Desorption (DVS test of salt forms; cycle 2, 60% humidity): 0.20%
- Sorption (DVS test of salt forms; cycle 2, 60% humidity): 0.18%
- Desorption (DVS test of salt forms; cycle 2, 70% humidity): 0.29%
- Sorption (DVS test of salt forms; cycle 2, 70% humidity): 0.27%
- Desorption (DVS test of salt forms; cycle 2, 80% humidity): 0.45%
- Sorption (DVS test of salt forms; cycle 2, 80% humidity): 0.43%
- Desorption (DVS test of salt forms; cycle 2, 90% humidity): 0.79%
- Sorption (DVS test of salt forms; cycle 2, 90% humidity): 0.79%

Structure (SMILES): CC(C)(O)CCn1cc2cc(NC(=O)c3coc(-c4ccnc(C(F)(F)F)c4)n3)c(C(C)(C)O)cc2n1.O=S(=O)(O)O [crystal form A of sulfate salt]
- Color Change [1, 3]: Turn Yellow
- Purity [1, 3]: 99.08%
- Salt Type [1, 3]: No Change
- Purity [1, 4]: 99.14%
- Salt Type [1, 4]: No Change
- Color Change [1, 5]: Turn Yellow
- Purity [1, 5]: 99.74%
- Salt Type [1, 5]: No Change
- Color Change [1, 6]: Turn Yellow
- Purity [1, 6]: 98.39%
- Salt Type [1, 6]: No Change
- Purity ([1]; Initial State): 99.12%
- Color Change ([1]; Initial State (colour)): White
- Color Change [1, 7]: No Change
- Purity [1, 7]: 99.35%
- Salt Type [1, 7]: No Change
- Color Change [1, 8]: No Change
- Purity [1, 8]: 99.26%
- Salt Type [1, 8]: No Change
- Solubility at 25° C. ([2]; Buffer pH = 1.0, 24 hours): 179.03 µg/mL
- Solubility at 25° C. ([2]; Buffer pH = 6.8, 24 hours): <LOD
- Solubility at 25° C. ([2]; FaSSIF (pH = 6.5), 24 hours): <LOD
- Solubility at 25° C. ([2]; FeSSIF (pH = 5.0), 24 hours): 19.45 µg/mL
- Solubility at 25° C. ([2]; SGF (pH = 1.2), 24 hours): 2.88 µg/mL
- Solubility at 25° C. ([2]; Water, 24 hours): 1.34 µg/mL
